Measured values: publication PMC4287489, “Ribose 5-Phosphate Isomerase B Knockdown Compromises Trypanosoma brucei Bloodstream Form Infectivity” (PLoS Neglected Tropical Diseases, 2015)
One block for each molecule: values may come before it.

Experiments:
[1] = biological target: T1, Trypanosoma cruzi ribose 5-phosphate isomerase B (TcRpiB) (Trypanosoma cruzi, UniProt Q4DBP9); test: spectrophotometric isomerase assay; Ki from Kmapp/Vmax plot; IC50 […]; format: biochemical
T1 construct: gene Tc00.1047053508601.119; recombinant N-terminal 6xHis-tagged TcRpiB (CL Brener Non-Esmeraldo-like) expressed in E. coli; 159 residues per monomer
T1 sequence (Q4DBP9 entry or part of it): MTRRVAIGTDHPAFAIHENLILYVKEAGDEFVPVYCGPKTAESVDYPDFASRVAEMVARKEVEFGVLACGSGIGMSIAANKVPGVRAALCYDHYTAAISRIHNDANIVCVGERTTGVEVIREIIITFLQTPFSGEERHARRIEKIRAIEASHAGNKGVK

[2] = biological target: T2, Trypanosoma brucei ribose 5-phosphate isomerase B (TbRpiB) (Trypanosoma brucei, UniProt Q384D1); test: spectrophotometric isomerase assay ([…] nm) and cysteine-carbazole assay; Ki from Kmapp/Vmax plot; IC50 […]; format: biochemical
T2 construct: gene Tb11.01.0700; recombinant N-terminal 6xHis-tagged TbRpiB expressed in E. coli; 155 residues per monomer
T2 sequence (Q384D1 entry or part of it): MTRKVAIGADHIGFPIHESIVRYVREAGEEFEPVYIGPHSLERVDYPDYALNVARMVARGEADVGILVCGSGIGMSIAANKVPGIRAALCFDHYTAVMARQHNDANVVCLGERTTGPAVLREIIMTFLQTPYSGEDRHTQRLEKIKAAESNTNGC

[3] = biological target: T1, Trypanosoma cruzi ribose 5-phosphate isomerase B (TcRpiB); test: enzyme kinetics (Km), direct spectrophotometric assay at […] nm; format: biochemical
[4] = test system: O=C(CO)[C@H](O)[C@H](O)COP(=O)(O)O; test: purified protein

Ki [1]: 1600 µM
Ki [2]: 2200 µM
Molecule: O=C(NO)[C@H](O)[C@H](O)COP(=O)(O)O [4-PEH, 4-deoxy-4-phospho-D-erythronohydroxamic acid]

Molecule: O=P(O)(O)OC[C@H]1OC(O)[C@H](O)[C@@H]1O (stereo partly drawn) [R5P, D-ribose 5-phosphate]
enzyme kinetics (Km), direct spectrophotometric assay at 290 nm [3]: enzymes have in vitro ribose 5-phosphate isomerase activity, as these proteins can use both R5P and Ru5P as substrates

Molecule: Trypanosoma brucei ribose 5-phosphate isomerase B (TbRpiB) (Trypanosoma brucei brucei TREU927)
Km [4]: 2390 ± 940 µM
kcat [4]: 39.4 ± 5.32 s⁻¹
kcat/Km [4]: 16400 M⁻¹ s⁻¹
